Where a name gives a salt, the structure may show the parent alone.
How the values were obtained:
[1] = whether or not linked with L-arginine
[2] = known salts in solution; cited from earlier work

SMILES	pH imposed in solution compared with the alkali metal salts (in words) [1]	pH imposed in solution (in words) [2]
CS(=O)(=O)Nc1ccc([N+](=O)[O-])cc1Oc1ccccc1 [nimesulide-L-lysine salt]	markedly less alkaline pH	
CS(=O)(=O)Nc1ccc([N+](=O)[O-])cc1Oc1ccccc1 [sodium salt of nimesulide]		relatively alkaline pH
